# Test results reported in US10648917B2, “Luminescent compositions and applications thereof” (THE PENN STATE RESEARCH FOUNDATION, priority 2015, dated 2020).
# What was measured:
# [1] = Time-resolved fluorescence lifetime (TCSPC); format: physicochemical
# Description: Fluorescence lifetimes were determined by using the Time-Correlation Single Photon Counting (TCSPC) accessory to the FluroMax-4 (Horiba, NJ). NanoLED pulse light sources at wavelengths of 352 nm and 390 nm were used for excitation. For each decay curve, 10,000 photons were collected. Fluorescence lifetime decays were fitted with an exponential series according to equation 1 below:
# [formula] where F(t) is the lifetime decay function with respect to time t, Ti is the lifetime value of the emitting species, A is the background offset, and Bi is the pre-exponential function of the emitting species. The method of least squares was used to quantify χ^2 based on the decay data and the fitting function, where χ^2 values smaller than 1.2 indicates a good fit; and values above 1.2 indicate need for multiple exponential fitting in equation 1. If the lifetime decay is dominated by one emitting species, the equation can be simplified to include only the first two terms. One exponential fitting is good for TPA based fluorophores. However, for DPR based fluorophores, only three exponential fitting gives a χ^2 smaller than 1.2. E. Computational Modeling
# Absorbance Spectra were recorded on Tecan Infinite M200 Pro UV-vis spectroscopy, and fluorescence spectra were recorded on Horiba FluoroMax-4 fluorospectroscopy at concentrations below 0.1 O.D. unless otherwise indicated. Quantum Yields were measured on the Quantum φ Integrating Sphere accessory to the FluoroMax-4, while lifetime measurements were determined through the Time-Correlation Single Photon Counting (TCSPC) accessory to the FluroMax-4. TCSPC was utilized in conjunction with NanoLED pulsed diode light source with peak excitation wavelength at 352 nm and at 10,000 counts peak preset. Emission was collected at the fluorescence λmax, unless otherwise indicated. For all pH-dependence experiments, sample pH was adjusted with sulfuric acid or sodium hydroxide. For all chloride-dependent quenching experiments, magnesium chloride hexahydrate (Sigma Aldrich) was used.
# Fluorescence lifetime decays were fitted with an exponential series according to equation 5 below:
# [formula] Where F(t) is the lifetime decay function with respect to time t, Ti is the lifetime value of the emitting species, A is the background offset, and Bi is the pre-exponential function of the emitting species. If the lifetime decay is dominated by one emitting species, the equation can be simplified to include only the first two terms. Bi measures the relative amplitude of the specified fluorophore, where the percent contribution of the fluorophore to the lifetime decay, f, is derived from equation 6:
# [formula] The method of least squares was used to quantify χ^2 based on the decay data and the fitting function, where χ^2 values under 1.2 indicates a good fit, and values above 1.2 indicate need for additional terms in equation 5. Typically, an additional exponential term was necessary to improve the χ^2 value and account for the presence of a negligible 6 ns species, deemed to stem from by-products of CFD synthesis, impurities, or CFD dimers. Since the contribution from this species was minor, often less than 5%, it was not included in lifetime analysis.
# [2] = test system: NIH 3T3 mouse fibroblasts; test: In vitro cytotoxicity, CCK-8 cell viability assay; format: cell-based; settings: for cell viability: 24 h
# Description: NIH 3T3 mouse fibroblasts (ATCC) were used as model cells for in vitro cytotoxicity evaluations. The cells were cultured in Dulbecco's modified eagle's medium (DMEM), which had been supplemented with 10% fetal bovine serum (FBS) and 1% penicillin streptomycin. The culture flasks were kept in an incubator maintained at 37° C., 5% CO2, and 95% relative humidity. For a typical cytotoxicity study, 3T3 cells were seeded with a density of 5×10^4 cells/ml. […] of cell suspension in DMEM was added to each well in a 96-well plate and then incubated for 24 h. The culture medium was changed to 100 μL of DMEM containing the CFDs with various concentrations and followed by another 24 h incubator. A CCK-8 cell viability assay was used for a quantitative assessment of the viable cells according to the manufacturer's protocol. Viability of cells was normalized to the control of tissue culture plates (n=5).
# The in vitro toxicity of CFDs was evaluated by incubating them with NIH 3T3 mouse fibroblasts at different concentrations. […] Therefore, CFDs are generally biocompatible fluorescent compounds that can be used at a high dosage. […] The red fluorescence was relatively weak since CA-Cys has relatively weak red fluorescence emission.
# [3] = 2500 μg/ml, vs control (p<0.01)
fluorescence lifetime τ1 ([1]; three exponential model),fluorescence lifetime τ2 ([1]; three exponential model),fluorescence lifetime τ3 ([1]; three exponential model),τ ([1]; Anion protolytic state),τ ([1]; Dianion protolytic state (physiological pH)),τ ([1]; Neutral protolytic state),"fluorescence lifetime τ ([1]; one-exponential decay, pulsed excitation at 352 nm, maximum emission wavelength)",SMILES,"cell viability ([2]; 1000 μg/ml, vs control)","cell viability [2, 3]",dosage with in-vitro cytocompatibility ([2]; 3T3 cell line)
0.95 ns,4.44 ns,10.35 ns,–,–,–,–,CC(C(=O)O)N1C(=O)C=C(C(=O)O)CC1=O (stereo not drawn) [CA-Ala],no significant decrease in cell viability,significant decrease,–
–,–,–,11.19 ns,10.06 ns,Quenched,10.46 ns,O=C(O)c1cc2n(c(=O)c1)C(C(=O)O)CS2 (stereo not drawn) [CA-Cys],no significant decrease in cell viability,significant decrease,up to 10.3 mM
